The record followed here is paper PMC6162201, “Towards a comprehensive understanding of the structural dynamics of a bacterial diterpene synthase during catalysis” (Nature Communications, 2018).

Each structure is given as a SMILES string.

This assay addresses T1, CotB2 (CotB2^wt) (Streptomyces melanosporofaciens, UniProt C9K1X5).
T1 construct: C-terminal His6 tag, pET-24a, expressed in E. coli Rosetta2 (DE3)
T1 sequence (C9K1X5 1-307): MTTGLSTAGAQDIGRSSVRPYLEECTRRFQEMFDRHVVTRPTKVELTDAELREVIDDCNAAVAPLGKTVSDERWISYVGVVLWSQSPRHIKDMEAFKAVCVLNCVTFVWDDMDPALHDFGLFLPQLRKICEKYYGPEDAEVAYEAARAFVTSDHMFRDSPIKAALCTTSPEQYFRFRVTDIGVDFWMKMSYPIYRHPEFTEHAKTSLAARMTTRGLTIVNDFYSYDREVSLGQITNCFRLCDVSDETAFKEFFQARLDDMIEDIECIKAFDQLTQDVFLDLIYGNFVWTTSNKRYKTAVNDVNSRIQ
The format is binding. As to conditions: Mg2+ (three ions), pH 8.5; active site, diphosphate mimic, closed state.

On to `NCCCC(O)(P(=O)(O)O)P(=O)(O)O` [AHD, (4-amino-1-hydroxy-1-phosphonobutyl)phosphonate], for which the “X-ray crystal structure, co-crystallisation” value is recorded as “we crystallised CotB2 with (4-amino-1-hydroxy-1-phosphonobutyl)phosphonate (alendronate (AHD)”.
